# Patent publication US10329254B2, “Process for the preparation of 6-chloro-2,3,4,9-tetrahydro-1H-carbazole-1-carboxamide and intermediates thereof” (AOP ORPHAN PHARMACEUTICALS AG, priority 2011, dated 2019)
# Experiments:
# Sirt1 = target: T1, Sirt1 (Homo sapiens, UniProt Q96EB6); details: known from WO2005026112; cited from earlier work
# T1 sequence (Q96EB6 1-747): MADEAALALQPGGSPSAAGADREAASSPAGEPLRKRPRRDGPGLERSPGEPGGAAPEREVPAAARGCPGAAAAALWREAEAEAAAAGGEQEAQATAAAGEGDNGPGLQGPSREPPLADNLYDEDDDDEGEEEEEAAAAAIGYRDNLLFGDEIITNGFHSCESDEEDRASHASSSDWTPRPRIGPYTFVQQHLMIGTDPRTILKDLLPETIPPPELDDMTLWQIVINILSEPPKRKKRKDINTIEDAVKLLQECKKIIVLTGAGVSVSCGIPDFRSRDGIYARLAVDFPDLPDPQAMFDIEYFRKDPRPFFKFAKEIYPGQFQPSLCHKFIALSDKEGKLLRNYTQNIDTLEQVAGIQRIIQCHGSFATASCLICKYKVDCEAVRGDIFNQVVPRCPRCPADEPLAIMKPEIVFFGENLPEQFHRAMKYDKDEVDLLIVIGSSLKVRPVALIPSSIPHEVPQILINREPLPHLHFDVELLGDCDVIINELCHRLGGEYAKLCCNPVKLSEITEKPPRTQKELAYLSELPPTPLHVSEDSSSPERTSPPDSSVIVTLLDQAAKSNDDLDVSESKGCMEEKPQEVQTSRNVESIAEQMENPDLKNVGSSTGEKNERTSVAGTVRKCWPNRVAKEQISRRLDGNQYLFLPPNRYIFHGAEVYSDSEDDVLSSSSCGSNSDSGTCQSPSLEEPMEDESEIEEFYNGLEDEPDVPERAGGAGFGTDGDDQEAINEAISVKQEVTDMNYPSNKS
# [1] = Form A stability tests under simulated drug substance storage conditions; format: physicochemical
# Procedure: Tables 3 and 4: Form A stability data: Compound (I) in the form of Form A was packed in double bagged polythene bags (fastened with cable/security ties) and placed inside 3.6 L Curtec kegs (HDPE) to simulate typical drug substance storage conditions. Stability tests were performed at 40° C./75% RH (table 3) and 25° C./60% RH (table 4).
# [2] = Hygroscopicity (absorption-desorption spectrum); format: physicochemical; details: FIG. 2 / FIG. 7
# Source text: FIG. 2: Absorption-Desorption spectrum of form A FIG. 7: Absorption-desorption spectrum of form B
structure (smiles),measurement,setting,value
"NC(=O)C1CCCc2c1[nH]c1ccc(Cl)cc21 (racemic) [Compound (I), rac-6-Chloro-2,3,4,9-tetrahydro-1H-carbazole-1-carboxamide]",anti Sirt1 activity,Sirt1,anti Sirt1 activity
"NC(=O)C1CCCc2c1[nH]c1ccc(Cl)cc21 (centres unmarked) [Form A, 6-Chloro-2,3,4,9-tetrahydro-1H-carbazole-1-carboxamide]",DSC (conforms to polymorph A),"[1]; 25° C./60% RH, t = 0",Conforms
same,"Impurity content (by HPLC), no single impurity greater than 0.50% area","[1]; 25° C./60% RH, t = 0",Conforms
same,XRPD (conforms to polymorph),"[1]; 25° C./60% RH, t = 0",Conforms
same,Assay (by HPLC),"[1]; 25° C./60% RH, t = 0, on an anhydrous and solvent free basis, spec 98.0-102.0% w/w",99.7% w/w
same,Water content (by KF titration),"[1]; 25° C./60% RH, t = 0, spec: not more than 0.5% w/w",<0.1% w/w
same,"Impurity content (by HPLC), total impurities","[1]; 25° C./60% RH, t = 0, spec: not more than 2.0% area",0.31% area
same,Description,"[1]; 25° C./60% RH, t = 0, spec: white to off-white solid",Off-white
same,Assay (by HPLC),"[1]; 25° C./60% RH, t = 1 month",99.0% w/w
same,Description,"[1]; 25° C./60% RH, t = 1 month",Off-white
same,"Impurity content (by HPLC), no single impurity greater than 0.50% area","[1]; 25° C./60% RH, t = 1 month",Conforms
same,"Impurity content (by HPLC), total impurities","[1]; 25° C./60% RH, t = 1 month",0.54% area
same,Water content (by KF titration),"[1]; 25° C./60% RH, t = 1 month",<0.1% w/w
same,Assay (by HPLC),"[1]; 25° C./60% RH, t = 3 months",99.1% w/w
same,Description,"[1]; 25° C./60% RH, t = 3 months",Off-white
same,"Impurity content (by HPLC), no single impurity greater than 0.50% area","[1]; 25° C./60% RH, t = 3 months",Conforms
same,"Impurity content (by HPLC), total impurities","[1]; 25° C./60% RH, t = 3 months",0.22% area
same,Water content (by KF titration),"[1]; 25° C./60% RH, t = 3 months",0.2% w/w
same,Assay (by HPLC),"[1]; 25° C./60% RH, t = 6 months",98.7% w/w
same,DSC (conforms to polymorph A),"[1]; 25° C./60% RH, t = 6 months",Conforms
same,Description,"[1]; 25° C./60% RH, t = 6 months",Off-white
same,"Impurity content (by HPLC), no single impurity greater than 0.50% area","[1]; 25° C./60% RH, t = 6 months",Conforms
same,"Impurity content (by HPLC), total impurities","[1]; 25° C./60% RH, t = 6 months",0.32% area
same,Water content (by KF titration),"[1]; 25° C./60% RH, t = 6 months",0.1% w/w
same,XRPD (conforms to polymorph),"[1]; 25° C./60% RH, t = 6 months",Conforms
same,Assay (by HPLC),"[1]; 25° C./60% RH, t = 9 months",99.4% w/w
same,Description,"[1]; 25° C./60% RH, t = 9 months",Off-white
same,"Impurity content (by HPLC), no single impurity greater than 0.50% area","[1]; 25° C./60% RH, t = 9 months",Conforms
same,"Impurity content (by HPLC), total impurities","[1]; 25° C./60% RH, t = 9 months",0.29% area
same,Water content (by KF titration),"[1]; 25° C./60% RH, t = 9 months",<0.1% w/w
same,Assay (by HPLC),"[1]; 25° C./60% RH, t = 12 months",99.0% w/w
same,DSC (conforms to polymorph A),"[1]; 25° C./60% RH, t = 12 months",Conforms
same,Description,"[1]; 25° C./60% RH, t = 12 months",Off-white
same,"Impurity content (by HPLC), no single impurity greater than 0.50% area","[1]; 25° C./60% RH, t = 12 months",Conforms
same,"Impurity content (by HPLC), total impurities","[1]; 25° C./60% RH, t = 12 months",0.27% area
same,Water content (by KF titration),"[1]; 25° C./60% RH, t = 12 months",0.1% w/w
same,XRPD (conforms to polymorph),"[1]; 25° C./60% RH, t = 12 months",Conforms
same,Assay (by HPLC),"[1]; 25° C./60% RH, t = 18 months",98.6% w/w
same,Description,"[1]; 25° C./60% RH, t = 18 months",Off-white
same,"Impurity content (by HPLC), no single impurity greater than 0.50% area","[1]; 25° C./60% RH, t = 18 months",Conforms
same,"Impurity content (by HPLC), total impurities","[1]; 25° C./60% RH, t = 18 months",0.26 % area
same,Water content (by KF titration),"[1]; 25° C./60% RH, t = 18 months",0.1% w/w
same,Assay (by HPLC),"[1]; 25° C./60% RH, t = 24 months",98.2% w/w
same,DSC (conforms to polymorph A),"[1]; 25° C./60% RH, t = 24 months",Conforms
same,Description,"[1]; 25° C./60% RH, t = 24 months",Off-white
same,"Impurity content (by HPLC), no single impurity greater than 0.50% area","[1]; 25° C./60% RH, t = 24 months",Conforms
same,"Impurity content (by HPLC), total impurities","[1]; 25° C./60% RH, t = 24 months",0.39% area
same,Water content (by KF titration),"[1]; 25° C./60% RH, t = 24 months",<0.1% w/w
same,XRPD (conforms to polymorph),"[1]; 25° C./60% RH, t = 24 months",Conforms
same,DSC (conforms to polymorph A),"[1]; 40° C./75% RH, t = 0",Conforms
same,"Impurity content (by HPLC), no single impurity greater than 0.50% area","[1]; 40° C./75% RH, t = 0",Conforms
same,XRPD (conforms to polymorph A),"[1]; 40° C./75% RH, t = 0",Conforms
same,Assay (by HPLC),"[1]; 40° C./75% RH, t = 0, anhydrous and solvent free-basis, spec 98.0-102.0% w/w",99.7% w/w
same,Water content (by KF titration),"[1]; 40° C./75% RH, t = 0, spec: not more than 0.5% w/w",<0.1% w/w
same,"Impurity content (by HPLC), total impurities","[1]; 40° C./75% RH, t = 0, spec: not more than 2.0% area",0.31% area
same,Description,"[1]; 40° C./75% RH, t = 0, spec: white to off-white solid",Off-white
same,Description,"[1]; 40° C./75% RH, t = 1 month",Off-white
same,"Impurity content (by HPLC), no single impurity greater than 0.50% area","[1]; 40° C./75% RH, t = 1 month",Conforms
same,"Impurity content (by HPLC), total impurities","[1]; 40° C./75% RH, t = 1 month",0.25% area
same,Water content (by KF titration),"[1]; 40° C./75% RH, t = 1 month",<0.1% w/w
same,Assay (by HPLC),"[1]; 40° C./75% RH, t = 1 month, anhydrous and solvent free-basis",98.9% w/w
same,Description,"[1]; 40° C./75% RH, t = 3 months",Off-white
same,"Impurity content (by HPLC), no single impurity greater than 0.50% area","[1]; 40° C./75% RH, t = 3 months",Conforms
same,"Impurity content (by HPLC), total impurities","[1]; 40° C./75% RH, t = 3 months",0.25% area
same,Water content (by KF titration),"[1]; 40° C./75% RH, t = 3 months",0.4% w/w
same,Assay (by HPLC),"[1]; 40° C./75% RH, t = 3 months, anhydrous and solvent free-basis",99.4% w/w
same,Description,"[1]; 40° C./75% RH, t = 6 months",Off-white
same,"Impurity content (by HPLC), no single impurity greater than 0.50% area","[1]; 40° C./75% RH, t = 6 months",Conforms
same,"Impurity content (by HPLC), total impurities","[1]; 40° C./75% RH, t = 6 months",0.33% area
same,Water content (by KF titration),"[1]; 40° C./75% RH, t = 6 months",0.1% w/w
same,XRPD (conforms to polymorph A),"[1]; 40° C./75% RH, t = 6 months",Conforms
same,Assay (by HPLC),"[1]; 40° C./75% RH, t = 6 months, anhydrous and solvent free-basis",99.0% w/w
same,Stability over time,[1]; Tables 3 and 4 (40° C./75% RH and 25° C./60% RH),stable over time
"NC(=O)C1CCCc2c1[nH]c1ccc(Cl)cc21 (centres unmarked) [Form B, 6-Chloro-2,3,4,9-tetrahydro-1H-carbazole-1-carboxamide]",Hygroscopicity,[2],non hygroscopic
